Measured values taken from patent publication US20080286335A1, “Enhancement Of The Calcium Sensing Receptor” (Smith & Nephew, Inc., priority 2007, published 2008).

Legend:
[1] = tested on: mouse calvarial cells; assay: Alizarin red staining (calcium deposition) of mouse calvarial cell monolayers; assay type: cell-based; conditions: 2.5 mM amino acid with 2.5 mM CaCl2, 2 week period, compared to 2.5 mM CaCl2 alone, FIG. 1 and 2
Method: (§1) Osteoblastic cells were isolated from mouse calvarial tissue dissected from the heads of 2-3 day old freshly slaughtered mice pups using sequential enzymatic digestion. Cells were maintained in DMEM+10% Foetal Bovine Serum (FBS) at 37° C./5% CO2 in order to expand the cells before experimental use. Human dermal fibroblasts (HDFs) were used in experiments as an additional negative control.
(§2) Cells were seeded into 24 well plates at a concentration of 5×10^4 cells/well in αMEM+10% FBS (n=6). Experiments were set up to examine the amount of mineralisation at two different concentrations of calcium chloride (CaCl2) (1.8 mM and 2.5 mM) with and without L-amino acids (L-phenylalanine and L-tryptophan at 2.5 mM). Cells were cultured at 37° C./5% CO2 with media changes three times a week. After 2 weeks and 3 weeks, the monolayers were stained to show the extent of mineralisation using Alizarin red (calcium deposition) and after 4 weeks with Von Kossa (mineralised matrix). Alizarin red stained monolayers were destained and the stain quantified spectophotometrically, whilst the Von Kossa staining was quantified using image analysis.

[2] = tested on: mouse calvarial cells; assay: Von Kossa staining (mineralised matrix) of mouse calvarial cell monolayers; assay type: cell-based; conditions: compared to 2.5 mM CaCl2 alone
Method: as §1
as §2, with “After 2 weeks and 3 weeks, the monolayers were stained to show the extent of mineralisation using Alizarin red (calcium deposition) and after 4 weeks with Von Kossa (mineralised matrix).” left out

Structure (SMILES)	calcium deposition [1]	amount of mineralised matrix ([2]; 2.5 mM L-Phe with 2.5 mM CaCl2, 2 week period, Von Kossa image analysis, FIG. 4)	amount of mineralised matrix ([2]; 2.5 mM L-Phe with 2.5 mM CaCl2, 4 week period, Von Kossa staining, FIG. 3)
N[C@@H](Cc1ccccc1)C(=O)O [L-Phe, L-phenylalanine]	significantly increases	significantly increases	significantly increases
N[C@@H](Cc1c[nH]c2ccccc12)C(=O)O [L-Trp, L-tryptophan]	significantly increases		
